Entries after “also recorded” stand apart in the source; their conditions may differ.
Tests used:
[1] = particle size and polydispersity index of drug micelles over time (ZetaSizer); format: physicochemical; conditions: for change of particle size and polydispersity index over time: 0-24 h
Description: Micellar size was measured using a ZetaSizer from Malvern Panalytical.
(§1) A stock solution of docetaxel in methanol was mixed with a stock solution of compound 1 in a round bottom flask. The mixture was evaporated to dryness in a rotary evaporator. Final drying was performed in a desiccator to remove residual solvent. Hydration of the dried film was performed by adding water for injection (1.0 mL) to a concentration of 1 mg/mL of docetaxel. The resulting solution was filtered through a 0.22 μm sterile filter and further diluted with 0.9% sodium chloride solution to 0.5 mg/mL of docetaxel. […]
(§2) A stock solution of cyclosporin in methanol was mixed with a stock solution of compound 1 in a round bottom flask. The mixture was evaporated to dryness in a rotary evaporator. Final drying was performed in a desiccator to remove residual solvent. Hydration of the dried film was performed by adding water for injection (1.0 mL) to a concentration of 1 mg/mL of cyclosporin. The resulting solution was filtered through a 0.22 μm sterile filter and further diluted with 0.9% sodium chloride solution to 0.5 mg/mL of cyclosporin. The final weight ratio of cyclosporin to micelle forming agent was 1:3.
(§3) A stock solution of docetaxel in methanol was mixed with a stock solution of compound 3 in a round bottom flask. The mixture was evaporated to dryness in a rotary evaporator. Final drying was performed in a desiccator to remove residual solvent. Hydration of the dried film was performed by adding water for injection (1.0 mL) to a concentration of 1 mg/mL of docetaxel. The resulting solution was filtered through a 0.22 μm sterile filter and further diluted with 0.9% sodium chloride solution to 0.5 mg/mL of Docetaxel. The final weight ratio of docetaxel to micelle forming agent was 1:3.
as §2, with “compound 3” for “compound 1”
as §1, with “compound 4” for “compound 1”
as §3, with “compound 5” for “compound 3”, “of docetaxel.” for “of Docetaxel.”
A stock solution of cabazitaxel in methanol was mixed with a stock solution of compound 5 in a round bottom flask. The mixture was evaporated to dryness in a rotary evaporator. Final drying was performed in a desiccator to remove residual solvent. Hydration of the dried film was performed by adding water for injection (1.0 mL) to a concentration of 1 mg/mL of cabazitaxel. […]

[2] = appearance of the hydrated drug formulation; format: physicochemical
Description: 3.8 mg of compound 1 was dispensed into a 25 mL round bottom flask and dissolved in methanol (2 mL). 240 μL of a stock solution of docetaxel in methanol (5 mg/mL) was added.
The solution was evaporated to dryness in a rotary evaporator. Final drying was performed in a desiccator to remove residual solvent. Hydration of the dried film was performed by adding water for injection (1.2 mL). […] Drug loading capacity is defined as the ratio of amount API:(API+excipient).
(§4) 11 mg of example 1 was dispensed into a 25 mL round bottom flask and dissolved in methanol (2 mL). 740 μL of a stock solution of docetaxel in methanol (4.96 mg/mL) was added. The solution was evaporated to dryness in a rotary evaporator. Final drying was performed in a desiccator to remove residual solvent.
as §4, with “4.5” for “11”, “compound” for “example”, “1500” for “740”, “cabazitaxel” for “docetaxel”, “(1.00” for “(4.96”
as §4, with “4.5” for “11”, “compound” for “example”, “1500” for “740”, “cyclosporin” for “docetaxel”, “(1.00” for “(4.96”, “solvent. […]” for “solvent.”
4.5 mg of compound 4 was dispensed into a round bottom flask and dissolved in methanol (3 mL). […] of a stock solution of docetaxel in methanol (4.96 mg/mL) was added. The solution was evaporated to dryness in a rotary evaporator. Final drying was performed in a desiccator (40 min) to remove residual solvent. Rehydration of the dried film was performed by adding 0.9% sodium chloride solution (1.5 mL).

[3] = cyclosporin:compound 1:3, cyclosporin 0.5 mg/mL
[4] = cyclosporin:compound 1:3, cyclosporin 0.5 mg/mL, time 0 h
[5] = cyclosporin:compound 1:3, cyclosporin 0.5 mg/mL, time 1 h
[6] = cyclosporin:compound 1:3, cyclosporin 0.5 mg/mL, time 2 h
[7] = cyclosporin:compound 1:3, cyclosporin 0.5 mg/mL, time 4 h
[8] = cyclosporin:compound 1:3, cyclosporin 0.5 mg/mL, time 6 h
[9] = cyclosporin:compound 1:3, cyclosporin 0.5 mg/mL, time 24 h
[10] = docetaxel:compound 1:3, docetaxel 0.5 mg/mL, time 0 h
[11] = docetaxel:compound 1:3, docetaxel 0.5 mg/mL, time 1 h
[12] = docetaxel:compound 1:3, docetaxel 0.5 mg/mL, time 2 h
[13] = docetaxel:compound 1:3, docetaxel 0.5 mg/mL, time 4 h
[14] = docetaxel:compound 1:3, docetaxel 0.5 mg/mL, time 6 h
[15] = docetaxel:compound 1:3, docetaxel 0.5 mg/mL, time 24 h
[16] = docetaxel:compound 1:5, docetaxel 0.5 mg/mL, time 0 h
[17] = docetaxel:compound 1:5, docetaxel 0.5 mg/mL, time 1 h
[18] = docetaxel:compound 1:5, docetaxel 0.5 mg/mL, time 2 h
[19] = docetaxel:compound 1:5, docetaxel 0.5 mg/mL, time 4 h
[20] = docetaxel:compound 1:5, docetaxel 0.5 mg/mL, time 6 h
[21] = docetaxel:compound 1:5, docetaxel 0.5 mg/mL, time 24 h

In the case of `COc1cc(C)c(/C=C/C(C)=C/C=C/C(C)=C/C(=O)N(C)CCS(=O)(=O)[O-])c(C)c1C.[Na+]` [Compound 3], the “change of particle size and polydispersity index over time” value [1, 3] was “Small variations in the particle size and polydispersity index over time were noted; also recorded: The changes were within acceptable range”, the Particle size [1, 4] was 8.46 nm and the Polydispersity index [1, 4] was 0.31. The Particle size [1, 5] was 6.77 nm, the Polydispersity index [1, 5] was 0.21 and the Particle size [1, 6] was 6.60 nm. It also gave a Polydispersity index [1, 6] of 0.19, a Particle size [1, 7] of 6.58 nm and a Polydispersity index [1, 7] of 0.18. It also gave a Particle size [1, 8] of 6.68 nm, a Polydispersity index [1, 8] of 0.21 and a Particle size [1, 9] of 7.39 nm. For the same compound, the Polydispersity index [1, 9] was 0.32, the “change of particle size and polydispersity index over time” value ([1]; docetaxel:compound 1:3, docetaxel 0.5 mg/mL) was “Small variations in the particle size and polydispersity index over time were noted; also recorded: The changes were within acceptable range” and the Particle size [1, 10] was 6.19 nm. For the same compound, the Polydispersity index [1, 10] was 0.11, the Particle size [1, 11] was 7.19 nm and the Polydispersity index [1, 11] was 0.11. For the same compound, the Particle size [1, 12] was 10.06 nm, the Polydispersity index [1, 12] was 0.26 and the Particle size [1, 13] was 10.18 nm. It also gave a Polydispersity index [1, 13] of 0.27, a Particle size [1, 14] of 10.25 nm and a Polydispersity index [1, 14] of 0.27. The Particle size [1, 15] was 6.20 nm, the Polydispersity index [1, 15] was 0.14 and the appearance of formulation ([2]; formulation with docetaxel) was “transparent yellow solution”.

In the case of `COc1cc(C)c(/C=C/C(C)=C/C=C/C(C)=C/C(=O)N(CCS(=O)(=O)[O-])C2CCCCC2)c(C)c1C.[Na+]` [Compound 1], the “change of particle size and polydispersity index over time” value [1, 3] was “Small increases in the particle size and variations of polydispersity index over time were noted; also recorded: The changes were within acceptable range”, the Particle size [1, 4] was 30.71 nm and the Polydispersity index [1, 4] was 0.10. The Particle size [1, 5] was 44.70 nm, the Polydispersity index [1, 5] was 0.22 and the Particle size [1, 6] was 41.29 nm. The Polydispersity index [1, 6] was 0.10, the Particle size [1, 7] was 44.53 nm and the Polydispersity index [1, 7] was 0.10. It also gave a Particle size [1, 8] of 49.61 nm, a Polydispersity index [1, 8] of 0.19 and a Particle size [1, 9] of 51.37 nm. For the same compound, the Polydispersity index [1, 9] was 0.14, the “change of particle size and polydispersity index over time” value ([1]; docetaxel:compound 1:5, docetaxel 0.5 mg/mL) was “Small increases in the particle size and polydispersity index over time were noted; also recorded: The changes were within acceptable range” and the Particle size [1, 16] was 30.77 nm. For the same compound, the Polydispersity index [1, 16] was 0.10, the Particle size [1, 17] was 36.60 nm and the Polydispersity index [1, 17] was 0.16. It also gave a Particle size [1, 18] of 39.44 nm, a Polydispersity index [1, 18] of 0.16 and a Particle size [1, 19] of 41.38 nm. For the same compound, the Polydispersity index [1, 19] was 0.18, the Particle size [1, 20] was 41.19 nm and the Polydispersity index [1, 20] was 0.20. For the same compound, the Particle size [1, 21] was 43.98 nm, the Polydispersity index [1, 21] was 0.21 and the appearance of formulation ([2]; formulation with cabazitaxel, 1 mg/mL in 0.9% NaCl) was “yellow transparent solution”. For the same compound, the appearance of formulation ([2]; formulation with cyclosporin, 1 mg/mL in 0.9% NaCl) was “yellow transparent solution” and the appearance of formulation ([2]; formulation with docetaxel) was “yellow transparent solution”.
